Like-named read-outs stand apart in the source and are kept apart here. Where a SMILES comes first, the peptide text is derived from it. The star is where a group is joined. Biotin = O=C1N[C@H]2[C@H](CS[C@H]2CCCCC(=O)*)N1; Ahx = NCCCCCC(=O)O
What was measured:
sAniA [1] = biological target: sAniA (Neisseria gonorrhoeae, UniProt Q02219); test: biochemical
Experimental: Biolayer Interferometry. […] Streptavidin (SA) biosensors (ForteBio) were loaded with C7-3Bio peptides for 10 min. Unloaded tips were used as a control. The sAniA samples were prepared in Kinetic Buffer in concentrations of 50, 100, 500, and 1000 nM. The baseline was established for 240 s and the association and dissociation steps were performed for 500 s. Experiments were performed in three biological replicates with the curve fitting using 2:1 (Heterogeneous Ligand) model and KD value calculations were completed using Octet Data Analysis (version 9).

[2] = biological target: T1, sAniA (recombinant AniA nitrite reductase) (Neisseria gonorrhoeae, UniProt Q02219); test: Inhibition of nitrite reductase activity of purified sAniA (fluorometric DAN nitrite assay); format: biochemical
T1 construct: wild type protein which lacks the N-terminal palmitoylation signal, sAniA; 6xHis (C); made in house; host or cells: Escherichia coli BL21(DE3)
Experimental: (§1) Measurements of Nitrite Reductase Activity with Purified AniA Variants. Enzymatic activity assessments with sAniA and AniA D137A H280A were performed based upon previous work (Boulanger and Murphy 2002, J Mol Biol 315:1111-27; Kakutani et al. 1981, J Biochem 89:463-72) but using a highly sensitive fluorometric assay for nitrite measurements that relies on the reaction of nitrite with 2,3-diaminonapthalene (DAN) to form the fluorescent product, 1-(H)-naphtothriazole (Misko et al. 1993, Anal Biochem 214:11-6). All reactions were conducted under anoxic or microoxic conditions. Fluorescence was measured at excitation of 360/40 nm and emission of 460/40 nm at a gain of 50 using a Synergy HT Plate Reader (BioTek). The sAniA and AniA D137AH280A activities are expressed as the mean reaction rate (nmoles of nitrite reduced/min/[…]) from at least ten independent experiments over the course of a nitrite utilization assay (Shewell et al. 2013, Biochem Biophys Res Commun 431:215-20).
(§2) Determination of Peptides Inhibitory Concentrations Required to Reduce the Signal by 50% (IC50s). […] Nitrite measurements with DAN were performed as described above after pre-incubation of samples for 1 h at room temperature. Control reactions consisted of sAniA alone and AniA D137A H280A treated in the same manner as the experimental samples. Reactions were performed in at least twelve independent experiments. Percent inhibition was calculated using the formula % I=100*(1−(x−y)/(z−y)) where “x”, “y” and “z” are the concentrations of nitrite in samples containing sAniA incubated with synthetic peptides, AniA D137A H280A and sAniA, respectively. The data were analyzed with a nonlinear log(inhibitor) vs. response—variable slope (four parameters) curve-fitting technique (GraphPad) to obtain […]. All experiments were performed in at least ten independent trials.

[3] = tested on: AniA nitrite reductase activity of intact N. gonorrhoeae FA1090 ΔaniA/PlacaniA cells; format: cell-based, Neisseria gonorrhoeae; settings: for Inhibition of nitrite reductase activity of intact gonococci: FA1090 ΔaniA/PlacaniA
Experimental: Whole Cell Nitrite Utilization Studies. The FA1090 ΔaniA/Plac::aniA and ΔaniA/Plac::D137AH280A were grown to OD600˜1.0, gently spun down, decanted and re-suspended in GCBL. […] Subsequently, 0.1 mM sodium nitrite was added and the samples were transferred into an anaerobic chamber. After 1 h, nitrite consumption was measured using Griess Reagent (Biotium) as previously described for N. gonorrhoeae nitrite reductase whole cell assay (Shewell et al. 2013, Biochem Biophys Res Commun 431:215-20). Absorbance values were measured at OD545 using a Synergy HT plate reader and nitrite concentration was assessed against a nitrite standard prepared in GCBL. Percent inhibition was calculated using the formula % 1=100*(1−(x−y)/(z−y)) where “x”, “y” and “z” are the concentrations of nitrite in samples containing FA1090 ΔaniA/PlacaniA incubated with synthetic peptides, ΔaniA/PlacaniA D137A H280A and ΔaniA/PlacaniA, respectively. Experiments were performed on at least three separate occasions and mean with SEM are reported.

[4] = biological target: T2, sAniA (recombinant AniA nitrite reductase) (Neisseria gonorrhoeae, UniProt Q02219); test: Inhibition of nitrite reductase activity of purified sAniA (fluorometric DAN nitrite assay); format: biochemical; settings: peptide 0 to 100 μM, DAN nitrite consumption assay
T2 construct: wild type protein which lacks the N-terminal palmitoylation signal, sAniA; 6xHis (C); made in house; host or cells: Escherichia coli BL21(DE3)
T2 sequence (Q02219 whole entry, looked up): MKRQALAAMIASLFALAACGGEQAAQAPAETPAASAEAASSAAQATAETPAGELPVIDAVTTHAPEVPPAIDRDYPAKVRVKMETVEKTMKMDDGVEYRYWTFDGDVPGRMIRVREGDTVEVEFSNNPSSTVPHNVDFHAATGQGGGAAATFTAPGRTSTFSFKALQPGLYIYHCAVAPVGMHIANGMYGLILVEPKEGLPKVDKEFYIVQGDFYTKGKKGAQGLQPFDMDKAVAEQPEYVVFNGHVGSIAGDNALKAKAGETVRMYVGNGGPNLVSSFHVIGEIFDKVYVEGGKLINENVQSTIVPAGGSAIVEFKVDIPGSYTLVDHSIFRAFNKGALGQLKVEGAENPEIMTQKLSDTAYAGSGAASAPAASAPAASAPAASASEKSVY
Experimental: as §1, §2

sAniA [5] = biological target: T3, sAniA (Neisseria gonorrhoeae, UniProt Q02219); test: Phage ELISA of phage-displayed peptides on sAniA-coated wells; format: binding; settings: 10^10 PFU per well, absorbance at 450 nm
T3 construct: wild type protein which lacks the N-terminal palmitoylation signal, sAniA; 6xHis (C); made in house; host or cells: Escherichia coli BL21(DE3)
T3 sequence (Q02219 whole entry, looked up): T2 sequence (Q02219 whole entry, looked up)
Experimental: Phage Enzyme-linked Immunosorbent Assay (Phage ELISA). Individual wells in 96-well transparent plates (Greiner-Bio) were coated with 100 μL of 100 μg/mL of sAniA suspended in 0.1 M NaHCO3pH 8.6 and incubated overnight at 4° C. in an airtight humidified box. After incubation, excess target solution was shaken out and wells were filled with 300 μL of blocking buffer (0.1 M NaHCO3pH 8.6, 5 mg/mL BSA). Following 2 h incubation at 4° C., blocking buffer was removed and wells were washed six times with 200 μL of TBST (50 mM Tris-HCl pH 8.6, 150 mM NaCl, 0.5% Tween). Isolated individual phage amplifications (10^10 PFU) in 100 μl of TBST were incubated at room temperature for 1 h with rocking. All wells were then cleared by shaking and washed six times with 200 μL of TBST. A solution containing Anti-M13 HRP linked-Monoclonal Antibodies (NEB) (1:5,000 dilution in blocking buffer) was distributed at 200 μL per well and incubated with rocking at room temperature for 1 h. Wells were washed six times with TBST and incubated with Turbo TMB-ELISA for 30 min with rocking at room temperature. To stop the reaction, finally 100 μL of 1.78 M H2SO4 was added to each well. […] Data from seven independent experiments are shown with mean and SEM

| Molecule | Kd (sAniA [1]) [nM] | IC50 [2] [nM] | Inhibition of nitrite reductase activity of intact gonococci ([3]; 0.6 mM peptide) [%] | further results |
| --- | --- | --- | --- | --- |
| CC(C)C[C@H](NC(=O)[C@H](CC(N)=O)NC(=O)[C@H](CC(C)C)NC(=O)[C@H](CCCNC(=N)N)NC(=O)[C@H](CS)NC(=O)[C@H](Cc1ccc(O)cc1)NC(=O)[C@H](CC(N)=O)NC(=O)[C@H](CS)NC(=O)[C@H](C)NC(=O)CCCCCNC(=O)CCCC[C@@H]1SC[C@@H]2NC(=O)N[C@@H]21)C(=O)N[C@@H](Cc1c[nH]c2ccccc12)C(=O)NCC(=O)NCC(=O)NCC(=O)N[C@@H](CO)C(N)=O [C7-3Bio] ({Biotin-Ahx}-ACNYCRLNLWGGGS-NH2) | 775 ± 88.5 |  |  |  |
| CC(C)C[C@H](NC(=O)[C@H](CC(N)=O)NC(=O)[C@H](CC(C)C)NC(=O)[C@H](CCCNC(=N)N)NC(=O)[C@H](CS)NC(=O)[C@H](Cc1ccccc1)NC(=O)[C@H](CC(N)=O)NC(=O)[C@H](CS)NC(=O)[C@H](C)N)C(=O)N[C@@H](Cc1c[nH]c2ccccc12)C(=O)NCC(=O)NCC(=O)NCC(=O)N[C@@H](CO)C(N)=O [C7-3P] (H-ACNFCRLNLWGGGS-NH2) |  | > 105000 |  |  |
| CC(C)C[C@H](NC(=O)[C@H](CC(N)=O)NC(=O)[C@H](CC(C)C)NC(=O)[C@H](CCCNC(=N)N)NC(=O)[C@H](CS)NC(=O)[C@H](Cc1ccc(O)cc1)NC(=O)[C@H](CC(N)=O)NC(=O)[C@H](CS)NC(=O)[C@H](C)N)C(=O)N[C@@H](Cc1c[nH]c2ccccc12)C(=O)NCC(=O)NCC(=O)NCC(=O)N[C@@H](CO)C(N)=O [C7-3] (H-ACNYCRLNLWGGGS-NH2) | 775 ± 88.5 | 10100 | 50 |  |
| CC(C)C[C@H](NC(=O)[C@H](CC(N)=O)NC(=O)[C@H](CC(C)C)NC(=O)[C@H](CCCNC(=N)N)NC(=O)[C@H](CS)NC(=O)[C@H](Cc1ccc(O)cc1)NC(=O)[C@H](CO)NC(=O)[C@H](CS)NC(=O)[C@H](C)N)C(=O)N[C@@H](Cc1c[nH]c2ccccc12)C(=O)NCC(=O)NCC(=O)NCC(=O)N[C@@H](CO)C(N)=O [C7-3mod2] (H-ACSYCRLNLWGGGS-NH2) |  |  | 90 | Inhibition of nitrite reductase activity of intact gonococci ([3]; 0.3 mM peptide): 50% |
| H-ACNYSRLNLWGGGS-NH2 [C7-3mod1] |  |  |  | Inhibition of AniA in intact gonococci (in words) ([3]; 0.15-0.6 mM tested, concentration not given): inhibited AniA moderately |
| H-KHYYGGDTTTLWGGGS-NH2 [12-5, synthetic version of the dodecameric phage-display hit 12-5] |  |  |  | Influence on AniA enzymatic activity (in words) [4]: did not influence AniA enzymatic activity; Effect on AniA activity of intact gonococci (in words) ([3]; highest tested concentration, 0.6 mM): no effect; Relative binding of phage-displayed peptide to sAniA (in words) (sAniA [5]): best binding |
